Converted amounts (≈) assume the structure as drawn. “And” between values parts separate entries of the source, which are not always exact repeats. Equal entries are not always repeated. Where two headings read alike, the source gives them in different places.
Assays:
[1] = Prodrug chemical stability of dissociated nanoformulations in pH 2.0-10.3 buffers; type: physicochemical; conditions: buffers pH 2.0-10.3, 24 h
Protocol: The mixtures were centrifuged at 16,000 × g for 10 min. The supernatants were aspirated and stored at −80 °C until ultraperformance liquid chromatography tandem mass spectrometry (UPLC-MS/MS) analysis.

[2] = Aqueous and 1-octanol solubility (excess drug, shaking 48 h, UPLC-UV); type: physicochemical; conditions: for solubility at 48 h: water, thermodynamic from solid
Protocol: Samples were centrifuged at 20,000 × g for 10 min to separate the solubilized drug from insoluble pellet. Aqueous supernatants were frozen, lyophilized, and then resuspended in MeOH. 1-octanol supernatants were prepared for analysis by dilution in MeOH and samples analyzed for drug content by UPLC-UV (Waters Acquity H Class).

HIV-1ADA = assay: Antiretroviral EC50/IC50 in MDM by HIV-1 RT activity after HIV-1ADA challenge; type: cell-based; conditions: for EC50: Human immunodeficiency virus 1, 240 h; for HIV-1 RT activity (Figure 2C source data): MDM, HIV-1ADA, replicates
Protocol: To determine long-term antiretroviral efficacy following a single treatment, MDMs were plated in flat-bottom 12-well plates at a density of 1.2 × 10^6 cells/well. […] After treatment, the cells were washed twice with PBS and cultured in a fresh culture medium without drug with half-media replacement every other day. On days 1, 5, 10, 15, 20, 25, and 30 following treatment, the cells were infected with HIV-1ADA (a macrophage-tropic viral strain) at a multiplicity of infection of 0.1 infectious particles/cell for 8 h. MDM were cultured, and media samples collected on day 10 for the measurement of HIV reverse transcriptase (RT) activity as previously described[64],[65]. Cells were fixed in 2% PFA at each time point, and expression of the HIV-1p24 antigen was determined by immunocytochemistry. […] After 4 h of viral challenge, the cells were washed with PBS and given fresh media that contained the same concentrations of drug (0.00005–5,000 nM). Cell supernatants were collected 10 days later and assayed for HIV-1 RT activity as described above. Replicate studies were performed in CEM-ss CD4+ T-cell cultures. Specifically, cells were plated in 96-well plates, centrifuged at 650 × g for 5 min, and resuspended in (0.1–1,000 nM) drug-containing media for 1 h. The subsequent challenge with HIV-1NL4–3-eGFP, cell culture, sample collection, and determination of HIV-1 RT activity were performed as previously reported[13],[15].

[3] = Prodrug stability in human plasma with or without heat-inactivation; type: in vitro ADME
Source text: Point 4. “It would be interesting to see what happens with separate injection at 56 days. Will mast cells occur or was a IgG or IGM response measured?”
Response: The transient presence of mast cells at the intramuscular site of injection is a normal physiological tissue injury response and has been previously observed after intramuscular injection of phosphate buffered saline or aqueous nanocrystalline compounds (Journal of the Neurological Sciences […]
al, mast cells could affect host protein adsorption to the particle surface to influence phagocytosis efficiency, lymphatic nanoparticle uptake and prodrug hydrolytic susceptibility. Other findings by Paquette et al. noted that the foreign body response observed following intramuscular or subcutaneous dosing of […]
Res. 2014; 31(8): 2065–2077). […]
immunogenicity markers were previously measured (PLoS One. 2015 Dec 30;10(12):e0145966. doi:
10.1371/journal.pone.0145966). In our prior studies we have assessed temporal leukocyte responses, drug uptake and distribution following multiple site injection of nanoformulated drugs. […]
inflammatory responses heralded drug distribution to macrophage populations, regional lymph nodes, spleen and liver. This proceeded changes in myeloid populations as determined through flow cytometric tests of changed CD45, CD3, CD11b, F4/80, and GR-1 surface markers. […]

HIV-1NL4–3-eGFP = assay: microbe, parasite or virus in culture; type: cell-based; conditions: replicates
Source text: Supplementary Fi gur e 9. ProTide Biological Characterizations. […]
(1 picture or pasted object on this page, not shown here)

HIV-1 = conditions: cited from earlier work
[4] = cited from earlier work
[5] = Figure 1C source data, read-out: water solubility, individual replicates
[6] = room temperature, 48 h, read-out: aqueous solubilities
[7] = Log Drug Concentration (uM) -12

CCCCCCCCCCCCCCCCCCCCCCOC(=O)[C@H](Cc1ccccc1)NP(=O)(CO[C@H](C)Cn1cnc2c(N)ncnc21)Oc1ccccc1 (stereo partly drawn) [M1TFV]
hydrolytic stability across pH [1]: enhanced prodrug stability over a broader pH range | water solubility, individual replicates ([2]; Figure 1C source data): 0.0003886 | solubility at 48 h [2, 5]: 0.276 µg/mL (≈ 0.338 µM) | solubility at 48 h [2, 6]: 2 µg/mL (≈ 2.44 µM) | EC50 (HIV-1ADA): 109 nM | HIV-1 RT activity (Figure 2C source data) (HIV-1ADA; 5e-5 nM): 44.264 and 8.411 and 11.973 | HIV-1 RT activity (Figure 2C source data) (HIV-1ADA; 0.0005 nM): 42.363 and 4.488 and 5.375 and 2.931 | HIV-1 RT activity (Figure 2C source data) (HIV-1ADA; 0.005 nM): 26.663 and 5.953 and 9.965 and 9.489 | HIV-1 RT activity (Figure 2C source data) (HIV-1ADA; 0.05 nM): 19.017 and 5.47 and 12.158 and 10.741 | HIV-1 RT activity (Figure 2C source data) (HIV-1ADA; 0.5 nM): 23.553 and 6.74 and 16.993 and 9.609 | HIV-1 RT activity (Figure 2C source data) (HIV-1ADA; 5 nM): 22.939 and 4.566 and 20.189 and 10.617 | HIV-1 RT activity (Figure 2C source data) (HIV-1ADA; 50 nM): 10.793 and 9.389 and 15.273 and 9.576 | HIV-1 RT activity (Figure 2C source data) (HIV-1ADA; 500 nM): 1.18 and 0.8 and 2.373 and 0.711 | HIV-1 RT activity (Figure 2C source data) (HIV-1ADA; 5000 nM): 0.069 and 0.042 and 0.107 and 0.063 | prodrug stability in human plasma [3]: greater prodrug stability is observed following heat-inactivation | % GFP Positive (HIV-1NL4–3-eGFP; Log Drug Concentration (uM) 0): 0.301% and 0.201% and 0.21% | % GFP Positive (HIV-1NL4–3-eGFP; Log Drug Concentration (uM) -1): 3.432% and 0.342% and 0.154% | % GFP Positive (HIV-1NL4–3-eGFP; Log Drug Concentration (uM) -2): 34.73% and 38.138% and 34.265% | % GFP Positive (HIV-1NL4–3-eGFP; Log Drug Concentration (uM) -3): 36.744% and 32.312% and 31.881% | % GFP Positive (HIV-1NL4–3-eGFP; Log Drug Concentration (uM) -4): 44.656% and 35.338% and 30.526% | % GFP Positive (HIV-1NL4–3-eGFP; Log Drug Concentration (uM) -5): 36.768% and 35.49% and 33.571% | % GFP Positive (HIV-1NL4–3-eGFP; Log Drug Concentration (uM) -6): 35.681% and 31.592% and 30.989% | % GFP Positive (HIV-1NL4–3-eGFP; Log Drug Concentration (uM) -9): 32.583% and 32.39% and 32.614% | % GFP Positive (HIV-1NL4–3-eGFP; [7]): 35.706% and 34.095% and 37.882%

C[C@@H](Cn1cnc2c(N)ncnc21)OCP(=O)(O)OP(=O)(O)OP(=O)(O)O [TFV-DP, TFV-diphosphate]
EC90 linked to HIV-1 prevention (HIV-1): 16−48 fmol/10^6 cells | human EC90 (HIV-1): 40 fmol/10^6 cells | intracellular half-life [4]: 60 to 100 h

CCCCCCCCCCCCCCCCCCCCCCOC(=O)[C@H](C)NP(=O)(CO[C@H](C)Cn1cnc2c(N)ncnc21)Oc1ccccc1 (stereo partly drawn) [M2TFV]
water solubility, individual replicates ([2]; Figure 1C source data): 0.01251 | solubility at 48 h [2, 5]: 12.8 µg/mL (≈ 17.2 µM) | solubility at 48 h [2, 6]: 7 µg/mL (≈ 9.42 µM) | EC50 (HIV-1ADA): 45.8 nM | HIV-1 RT activity (Figure 2C source data) (HIV-1ADA; 5e-5 nM): 13.739 and 9.752 and 35.142 and 27.238 | HIV-1 RT activity (Figure 2C source data) (HIV-1ADA; 0.0005 nM): 8.448 and 5.392 and 11.763 and 48.649 | HIV-1 RT activity (Figure 2C source data) (HIV-1ADA; 0.005 nM): 4.57 and 12.93 and 25.65 | HIV-1 RT activity (Figure 2C source data) (HIV-1ADA; 0.05 nM): 20.147 and 8.847 and 17.324 and 34.222 | HIV-1 RT activity (Figure 2C source data) (HIV-1ADA; 0.5 nM): 8.161 and 9.38 and 10.627 and 29.921 | HIV-1 RT activity (Figure 2C source data) (HIV-1ADA; 5 nM): 11.203 and 10.291 and 8.118 and 21.328 | HIV-1 RT activity (Figure 2C source data) (HIV-1ADA; 50 nM): 5.19 and 8.444 and 10.014 and 13.232 | HIV-1 RT activity (Figure 2C source data) (HIV-1ADA; 500 nM): 0.193 and 0.074 and 0.345 and 0.105 | HIV-1 RT activity (Figure 2C source data) (HIV-1ADA; 5000 nM): 0.109 and 0.079 and 0.087 and 0.068 | % GFP Positive (HIV-1NL4–3-eGFP; Log Drug Concentration (uM) -1): 34.257% and 38.787% and 40.022% | % GFP Positive (HIV-1NL4–3-eGFP; Log Drug Concentration (uM) -2): 32.595% and 37.488% and 35.513% | % GFP Positive (HIV-1NL4–3-eGFP; Log Drug Concentration (uM) -3): 41.233% and 50.41% and 33.492% | % GFP Positive (HIV-1NL4–3-eGFP; Log Drug Concentration (uM) -4): 35.706% and 41.394% and 37.81% | % GFP Positive (HIV-1NL4–3-eGFP; Log Drug Concentration (uM) -5): 40.045% and 36.193% and 55.429% | % GFP Positive (HIV-1NL4–3-eGFP; Log Drug Concentration (uM) -6): 38.435% and 46.924% and 37.203% | % GFP Positive (HIV-1NL4–3-eGFP; Log Drug Concentration (uM) -9): 35.618% and 35.142% and 32.671% | % GFP Positive (HIV-1NL4–3-eGFP; [7]): 34.002% and 36.532% and 30.423%

C[C@H](Cn1cnc2c(N)ncnc21)OCP(=O)(O)O [TFV]
% GFP Positive (HIV-1NL4–3-eGFP; Log Drug Concentration (uM) 0): 36.84% and 37.843% | % GFP Positive (HIV-1NL4–3-eGFP; Log Drug Concentration (uM) -1): 31.924% and 40.715% and 38.216% | % GFP Positive (HIV-1NL4–3-eGFP; Log Drug Concentration (uM) -2): 37.754% and 35.95% and 31.757% | % GFP Positive (HIV-1NL4–3-eGFP; Log Drug Concentration (uM) -3): 42.49% and 36.095% and 44.333% | % GFP Positive (HIV-1NL4–3-eGFP; Log Drug Concentration (uM) -4): 39.731% and 37.304% and 35.107% | % GFP Positive (HIV-1NL4–3-eGFP; Log Drug Concentration (uM) -5): 38.31% and 35.838% and 38.644% | % GFP Positive (HIV-1NL4–3-eGFP; Log Drug Concentration (uM) -6): 32.278% and 38.458% and 41.384% | % GFP Positive (HIV-1NL4–3-eGFP; Log Drug Concentration (uM) -9): 41.35% and 30.768% | % GFP Positive (HIV-1NL4–3-eGFP; [7]): 42.035% and 35.935% and 39.23%

From paper PMC8445934, “Transformation of tenofovir into stable ProTide nanocrystals with long-acting pharmacokinetic profiles” (Nature Communications, 2021)
